Results from patent publication US9062045B2, “Triazolopyridine compounds” (Novartis AG, priority 2012, dated 2015).
Read-outs that look alike come from different tables or passages of the source.

Assays:
[1] = target: human platelet PDE3 (Homo sapiens (Human), UniProt Q14432); assay: hPDE3 assay ([3H]cAMP scintillation proximity assay); type: biochemical
Source text: Here, compounds of formula I were screened for their ability to inhibit human PDE3 in the assay based on Amersham Pharmacia Biotech's Phosphodiesterase (PDE) [^3H]-adenosine 3′,5′ cyclic phosphate ([^3H]cAMP) Scintillation Proximity Assay (SPA). The assay is based on the hydrolysis of [^3H]cAMP, by human platelet PDE3, to [^3H]5′-adenoside monophosphate (5′-AMP). The [^3H]5′-AMP is specifically captured by yttrium silicate SPA beads in the presence of zinc sulphate.
• Optiplate and TopSeal-S (Can berra Packard) • Human platelet PDE3 (partially purified from human platelets)—a titration curve of human platelet PDE3 activity was performed to optimise the concentration of hPDE3 required in the assay. • Yttrium silicate SPA beads and [^3H]cAMP (Amersham) • Tris-Base, magnesium chloride, ethylenediaminetetraacetic acid (di-sodium salt), bovine serum albumin BSA and cAMP (Sigma) Solutions and Buffers: • Assay buffer: 7.56 g Tris-Base was dissolved in approximately 800 mL distilled water and the pH adjusted to 7.5 with 1 M hydrochloric acid. 10.3 mL 1 M magnesium chloride and 4.25 mL 0.5 M EDTA were added. The solution was made to 1 L with distilled water and stored at 4° C. On day of use 18 mL of the above solution was removed and 2 mL 5 mg/ml BSA were added thereto. • Enzyme buffer: 10 mM Tris-HCl at pH 7.5, 1 mM EDTA • Yttrium silicate SPA beads: 1 vial was reconstituted in 28 mL distilled water and stored at 4° C. Assay
The assay was performed in a final volume of 100 μL per well of an Optiplate (Canberra Packard). A 10 μL aliquot of the test compound dissolved in DMSO/distilled water was placed in a well of an Optiplate plate, followed by the addition of 80 μL ‘Assay mix’ (5.5 μL [^3H]cAMP and 88 μL “cold” cAMP were diluted to 8.8 mL using assay buffer). The reaction was started by adding 10 μL hPDE3 (50 μL stock hPDE3 solution was diluted 50 fold to 2.5 mL using enzyme buffer). The plate was incubated at room temperature for 30 min, the reaction was then terminated by the addition of 50 μL Yttrium silicate SPA beads (pre-warmed to room temperature) to all wells. […] The plate was sealed using TopSeal-S according to the manufacturer's instructions and counted using a Packard TopCount, each well being counted for 1 min. IC50 values were determined using non-linear regression.

[2] = system: GTL16 cells; assay: GTL16 cell viability assay (CellTiter Glo); conditions: read-out: GTL-16 Proliferation IC50; GTL16 cells, 24 hours
Procedure: GTL16 Cell Viability Assay:
GTL16 expresses high level of c-Met receptor tyrosine kinase due to the gene amplification.
GTL16 cells were seeded in DMEM medium with 10% FBS and 1% Pene. & Strep. at 5000 cells/well/90 μL in 96 well plate and incubated overnight for attachment at 37° C. in 5% CO2 incubator. 10-fold serials dilutions of compounds were added to the cell as 10 μL/well. The final assay volume was 100 μl/well. The assay plates were incubated at 37° C. in 5% CO2 incubator for 24 hours. […] The chemiluminescent light unit was read in Envision from Perkin Elmer. All the tests were run at triplicates. The IC50 was calculated using Spotfire software.

human platelet PDE3, sequence (Q14432 whole entry): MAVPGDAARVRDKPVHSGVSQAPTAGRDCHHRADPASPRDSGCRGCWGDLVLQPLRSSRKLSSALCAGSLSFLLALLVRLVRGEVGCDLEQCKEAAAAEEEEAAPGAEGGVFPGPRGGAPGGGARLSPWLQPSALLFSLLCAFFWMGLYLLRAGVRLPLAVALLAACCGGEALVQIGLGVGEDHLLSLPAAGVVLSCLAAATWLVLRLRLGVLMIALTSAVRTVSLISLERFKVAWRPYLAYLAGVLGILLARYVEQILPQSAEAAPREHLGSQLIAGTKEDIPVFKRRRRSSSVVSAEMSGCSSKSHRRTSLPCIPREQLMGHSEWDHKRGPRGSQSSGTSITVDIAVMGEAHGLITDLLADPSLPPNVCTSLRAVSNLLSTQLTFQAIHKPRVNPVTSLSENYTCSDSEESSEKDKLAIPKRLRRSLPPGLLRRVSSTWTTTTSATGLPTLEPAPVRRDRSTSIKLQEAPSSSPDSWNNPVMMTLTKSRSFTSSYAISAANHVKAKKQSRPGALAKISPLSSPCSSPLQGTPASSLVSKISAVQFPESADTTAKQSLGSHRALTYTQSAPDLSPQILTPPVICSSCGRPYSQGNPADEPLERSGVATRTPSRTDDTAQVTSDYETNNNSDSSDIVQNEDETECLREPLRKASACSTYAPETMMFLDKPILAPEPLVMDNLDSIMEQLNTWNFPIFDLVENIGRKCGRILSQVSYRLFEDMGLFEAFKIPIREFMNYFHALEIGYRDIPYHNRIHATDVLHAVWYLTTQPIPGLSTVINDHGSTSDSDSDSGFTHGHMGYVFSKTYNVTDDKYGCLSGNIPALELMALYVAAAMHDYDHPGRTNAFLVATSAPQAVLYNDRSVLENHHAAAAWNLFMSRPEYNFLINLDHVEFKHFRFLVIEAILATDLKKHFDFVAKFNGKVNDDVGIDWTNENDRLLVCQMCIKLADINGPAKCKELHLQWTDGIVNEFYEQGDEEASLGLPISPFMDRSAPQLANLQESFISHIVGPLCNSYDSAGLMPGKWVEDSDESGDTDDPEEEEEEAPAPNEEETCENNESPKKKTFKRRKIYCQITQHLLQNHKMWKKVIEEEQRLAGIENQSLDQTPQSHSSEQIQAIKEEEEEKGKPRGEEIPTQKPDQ

C/C(=N\OCCO)c1ccc2nnc(Sc3ccc4ncc(N5CCC(O)CC5)cc4c3)n2c1 [Example 76, (E)-1-(3-((3-(4-Hydroxypiperidin-1-yl)quinolin-6-yl)thio)-[1,2,4]triazolo[4,3-a]pyridin-6-yl)-ethanone O-(2-hydroxyethyl)oxime]
IC50 ([1]; human platelet PDE3): 14 µM
IC50 [2]: 54 nM

Cn1cc(-c2ccc3nnc(Sc4ccc5ncc(N6CCCC(N)C6)cc5c4)n3c2)cn1 (centres unmarked) [Example 10, 1-(6-(6-(1-Methyl-1H-pyrazol-4-yl)-[1,2,4]triazolo[4,3-a]pyridin-3-ylthio)quinolin-3-yl)piperidin-3-amine]
IC50 [2]: 21 nM

Cn1cc(-c2ccc3nnc(Sc4ccc5ncc(NCCO)cc5c4)n3c2)cn1 [Example 53, 2-(6-(6-(1-methyl-1H-pyrazol-4-yl)-[1,2,4]triazolo[4,3-a]pyridin-3-ylthio)quinolin-3-ylamino)ethanol]
IC50 ([1]; human platelet PDE3): 14 µM
IC50 [2]: 17 nM

Cn1cc(-c2ccc3nnc(Sc4ccc5ncc(NC6CC(C)(C)NC(C)(C)C6)cc5c4)n3c2)cn1 [Example 62, 6-(6-(1-Methyl-1H-pyrazol-4-yl)-[1,2,4]triazolo[4,3-a]pyridin-3-ylthio)-N-(2,2,6,6-tetramethylpiperidin-4-yl)quinolin-3-amine]
IC50 ([1]; human platelet PDE3): 18 µM
IC50 [2]: 73 nM

C/C(=N\OCCO)c1ccc2nnc(Sc3ccc4ncc(NC5CCOCC5)cc4c3)n2c1 [Example 83, (E)-1-(3-(3-(Tetrahydro-2H-pyran-4-ylamino)quinolin-6-ylthio)-[1,2,4]triazolo[4,3-a]pyridin-6-yl)ethanone O-2-hydroxyethyl oxime]
IC50 ([1]; human platelet PDE3): 20 µM
IC50 [2]: 1 nM

Cn1cc(-c2ccc3nnc(Sc4ccc5ncc(NC6CCOCC6)cc5c4)n3c2)cn1 [Example 68, {6-[6-(1-Methyl-1H-pyrazol-4-yl)-[1,2,4]triazolo[4,3-a]pyridin-3-ylsulfanyl]-quinolin-3-yl}-(tetrahydro-pyran-4-yl)-amine]
IC50 ([1]; human platelet PDE3): 10 µM
IC50 [2]: 3 nM

C/C(=N\OCCO)c1ccc2nnc(Sc3ccc4ncc(N5CCOCC5)cc4c3)n2c1 [Example 78, (E)-1-(3-((3-Morpholin-4-yl-quinolin-6-yl)thio)-[1,2,4]triazolo[4,3-a]pyridin-6-yl)ethanone O-(2-hydroxyethyl)oxime]
IC50 ([1]; human platelet PDE3): 28 µM

Cn1cc(-c2ccc3nnc(Sc4ccc5ncc(NC6CCOC6)cc5c4)n3c2)cn1 (centres unmarked) [Example 51]
IC50 ([1]; human platelet PDE3): 7 µM
IC50 [2]: 9 nM

OCCn1cc(-c2cnc3nnn(Cc4ccc5ncccc5c4)c3n2)cn1 [Comparator No. 3 (PF-04217903), 2-[4-(3-Quinolin-6-ylmethyl-3H-[1,2,3]triazolo[4,5-b]pyrazin-5-yl)-pyrazol-1-yl]-ethanol, reference compound]
IC50 [2]: < 10 nM

COC1CCN(c2cnc3ccc(Sc4nnc5ccc(-c6cnn(C)c6)cn45)cc3c2)CC1 [Example 43, 3-(4-Methoxypiperidin-1-yl)-6-(6-(1-methyl-1H-pyrazol-4-yl)-[1,2,4]triazolo[4,3-a]pyridin-3-ylthio)quinoline]
IC50 [2]: 0.3 nM

CN1CCC(Nc2cnc3ccc(Sc4nnc5c(F)cc(-c6cnn(C)c6)cn45)cc3c2)CC1 [Example 8, {6-[8-Fluoro-6-(1-methyl-1H-pyrazol-4-yl)-[1,2,4]triazolo[4,3-a]pyridin-3-ylsulfanyl]-quinolin-3-yl}-(1-methyl-piperidin-4-yl)-amine]
IC50 ([1]; human platelet PDE3): 30 µM

CN1CCC(Nc2cnc3ccc(Sc4nnc5ccc(-c6cnn(C)c6)cn45)cc3c2)CC1 [Example 15, (1-Methyl-piperidin-4-yl)-{6-[6-(1-methyl-1H-pyrazol-4-yl)-[1,2,4]triazolo[4,3-a]pyridin-3-ylsulfanyl]-quinolin-3-yl}-amine]
IC50 ([1]; human platelet PDE3): 30 µM
IC50 [2]: 2 nM

C/C(=N\O)c1ccc2nnc(Sc3ccc4ncc(NC5CCOCC5)cc4c3)n2c1 [Example 84, (E)-1-(3-(3-(Tetrahydro-2H-pyran-4-ylamino)quinolin-6-ylthio)-[1,2,4]triazolo[4,3-a]pyridin-6-yl)ethanone oxime]
IC50 ([1]; human platelet PDE3): 6 µM
IC50 [2]: 3 nM

CN1CCN(Cc2cnc3ccc(Sc4nnc5ccc(-c6cnn(C)c6)cn45)cc3c2)CC1 [Example 6, 6-(6-(1-Methyl-1H-pyrazol-4-yl)-[1,2,4]triazolo[4,3-a]pyridin-3-ylthio)-3-((4-methylpiperazin-1-yl)methyl)quinoline]
IC50 ([1]; human platelet PDE3): 30 µM
IC50 [2]: 27 nM

Cn1cc(-c2ccc3nnc(Sc4ccc5ncc(N6CCC7(CCOCC7)C6)cc5c4)n3c2)cn1 [Example 47, 2-(6-((6-(1-Methyl-1H-pyrazol-4-yl)-[1,2,4]triazolo[4,3-a]pyridin-3-yl)thio)quinolin-3-yl)-8-oxa-2-azaspiro[4.5]decane]
IC50 ([1]; human platelet PDE3): 12 µM
IC50 [2]: 3 nM

C/C(=N\OCCO)c1cc(F)c2nnc(Sc3ccc4ncc(N5CC[C@H](N(C)C)C5)cc4c3)n2c1 [Example 85, (S,E)-1-{3-[3-(3-dimethylamino-pyrrolidin-1-yl)-quinolin-6-ylthio]-8-fluoro-[1,2,4]triazolo[4,3-a]pyridin-6-yl}ethanone O-(2-hydroxy-ethyl)-oxime]
IC50 ([1]; human platelet PDE3): 30 µM
IC50 [2]: 23 nM

Cn1cc(-c2cc(F)c3nnc(Sc4ccc5ncc(N6CCOCC6)cc5c4)n3c2)cn1 [Example 70, 4-(6-(8-Fluoro-6-(1-methyl-1H-pyrazol-4-yl)-[1,2,4]triazolo[4,3-a]pyridin-3-ylthio)quinolin-3-yl)morpholine]
IC50 [2]: 1 nM

C/C(=N\O)c1ccc2nnc(Sc3ccc4ncc(N5CCOCC5)cc4c3)n2c1 [Example 77, (E)-1-(3-((3-Morpholin-4-yl-quinolin-6-yl)thio)-[1,2,4]triazolo[4,3-a]pyridin-6-yl)ethanone oxime]
IC50 ([1]; human platelet PDE3): 12 µM
IC50 [2]: 8 nM

C/C(=N\OCCO)c1ccc2nnc(Sc3ccc4ncc(CN5CCOCC5)cc4c3)n2c1 [Example 80, (E)-1-(3-((3-(Morpholin-4-yl-methyl)quinolin-6-yl)thio)-[1,2,4]triazolo[4,3-a]pyridin-6-yl)ethanone O-(2-hydroxyethyl)oxime]
IC50 ([1]; human platelet PDE3): 30 µM

Cn1cc(-c2cc(F)c3nnc(Sc4ccc5ncc(NCCO)cc5c4)n3c2)cn1 [Example 54, 2-(6-(8-Fluoro-6-(1-methyl-1H-pyrazol-4-yl)-[1,2,4]triazolo[4,3-a]pyridin-3-ylthio)quinolin-3-ylamino)ethanol]
IC50 [2]: 14 nM

C/C(=N\O)c1ccc2nnc(Sc3ccc4ncc(N5CC[C@H](N(C)C)C5)cc4c3)n2c1 [Example 82, (S,E)-1-(3-(3-(3-(Dimethylamino)pyrrolidin-1-yl)quinolin-6-ylthio)-[1,2,4]triazolo[4,3-a]pyridin-6-yl)ethanone oxime]
IC50 [1]: 11 µM

CN1CCN(c2cnc3ccc(Sc4nnc5ccc(-c6cnn(C)c6)cn45)cc3c2)CC1 [Example 74, 3-(4-Methyl-piperazin-1-yl)-6-[6-(1-methyl-1H-pyrazol-4-yl)-[1,2,4]triazolo[4,3-a]pyridin-3-ylsulfanyl]-quinoline]
IC50 [2]: 2 nM

Cn1cc(-c2ccc3nnc(Sc4ccc5ncc(N6CCC(N)CC6)cc5c4)n3c2)cn1 [Example 21, 1-(6-(6-(1-Methyl-1H-pyrazol-4-yl)-[1,2,4]triazolo[4,3-a]pyridin-3-ylthio)quinolin-3-yl)piperidin-4-amine]
IC50 [2]: 36 nM
